Source: PMC10142505, “Synthesis, Evaluation of Enzyme Inhibition and Redox Properties of Potential Dual COX-2 and 5-LOX Inhibitors” (Pharmaceuticals, 2023)

How the values were obtained:
[1] = target: T1, COX-1 ovine enzyme (Ovis aries, UniProt P05979); assay: Fluorometric COX-1 inhibitor screening kit; format: biochemical; settings: for inhibition at 100 µM: at 100 µM concentration; for IC50: fluorometric kit
T1 construct: purchased Abcam ab204698
T1 sequence (P05979 25-600): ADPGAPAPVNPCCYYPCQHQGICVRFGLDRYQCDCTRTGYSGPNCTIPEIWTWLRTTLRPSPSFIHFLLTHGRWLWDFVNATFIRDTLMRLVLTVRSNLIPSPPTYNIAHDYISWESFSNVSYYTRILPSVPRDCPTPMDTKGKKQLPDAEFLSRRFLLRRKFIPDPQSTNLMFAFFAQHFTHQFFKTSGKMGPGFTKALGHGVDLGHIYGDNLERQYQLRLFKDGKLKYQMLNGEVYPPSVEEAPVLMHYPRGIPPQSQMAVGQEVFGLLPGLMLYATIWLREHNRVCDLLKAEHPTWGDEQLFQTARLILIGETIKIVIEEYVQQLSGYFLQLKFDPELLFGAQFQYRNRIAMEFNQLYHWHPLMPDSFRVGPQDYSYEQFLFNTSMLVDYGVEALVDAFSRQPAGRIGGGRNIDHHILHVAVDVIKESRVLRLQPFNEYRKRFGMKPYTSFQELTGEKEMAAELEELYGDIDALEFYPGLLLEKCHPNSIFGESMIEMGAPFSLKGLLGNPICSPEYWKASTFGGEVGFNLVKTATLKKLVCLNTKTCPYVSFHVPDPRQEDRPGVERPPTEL
Method: The COX-1 and COX-2 inhibitory activates of the synthesized compounds were tested using fluorometric COX-1 (Catalog Number: ab204698) and COX-2 (Catalog Number: ab283401) inhibitor screening kits (Abcam, United Kingdom). These assays are based on the fluorometric detection of Prostaglandin G2, generated by the COX enzyme. The experiment was conducted according to the manufacturer’s instructions. Each assay consists of a COX Assay Buffer, COX Probe (in DMSO), COX Cofactor (in DMSO), arachidonic acid and NaOH. The COX-1 inhibitor screening kit contains COX-1 ovine enzyme and COX-1 inhibitor SC560 (dissolved in DMSO), while the COX-2 inhibitor screening kit contains COX-2 human recombinant enzyme and COX-2 inhibitor Celecoxib (dissolved in DMSO). The tested compounds were dissolved in DMSO and further diluted five times with the COX Assay Buffer. The Inhibitor Control (IC) was prepared by adding 2 µL of COX-1/COX-2 inhibitor and 8 µL of COX Assay Buffer into assigned wells, while the Solvent Control (SC) was prepared by adding 2 µL of DMSO and 8 µL of COX Assay Buffer into assigned wells and the Sample (S) and Enzyme Control (EC) were prepared by adding 10 µL of diluted tested compounds or COX Assay Buffer into assigned wells. The Reaction Master Mix (COX Assay Buffer, COX Probe, Diluted COX Cofactor and COX-1/COX-2 Enzyme) was prepared according to instructions and 80 µL of the Reaction Master Mix was added into each well. Meanwhile, a diluted arachidonic acid/NaOH solution was prepared and 10 µL was added into each well using a multi-channel pipette to initiate all the reactions at the same time. The fluorescence values (Ex/Em = 535/587 nm) of the samples were kinetically measured at 25 °C for 5–10 min. The EC, SC, IC and tested compounds at all concentrations were analyzed in triplicates. Two points (T1 and T2) in the linear range of the plot were chosen and corresponding fluorescence values (RFU1 and RFU2) were obtained. The slope for all samples was calculated by dividing ΔRFU (RFU2-RFU1) by time Δt (T2−T1). The percentage of inhibition was calculated as follows: % Relative Inhibition=Slope of EC−Slope of S/Slope of EC∗100
Fluorescence measurements were performed on a BioTek Synergy LX multi-mode reader (Winooski, VT, USA).

SMILES: COc1ccc2c(c1)c(CNC(=O)NO)c(C)n2C(=O)c1ccc(Cl)cc1 [Compound 1, N’-hydroxy-N-[(1-(4-chlorobenzoyl)-5-methoxy-2-methyl-3-indolyl)methyl]urea]
- inhibition at 100 µM [1]: < 50%
- IC50 [1]: > 100 µM

SMILES: CC(NC(=O)NO)c1ccc(-c2ccccc2)c(F)c1 (stereo not shown) [Compound 2]
- inhibition at 100 µM [1]: < 50%
- IC50 [1]: > 100 µM

SMILES: O=C(NO)NCc1ccccc1Nc1c(Cl)cccc1Cl [Compound 3, N’-hydroxy-N-[(2-(2,6-dichloroanilino)phenyl)methyl]urea]
- inhibition at 100 µM [1]: < 50%
- IC50 [1]: > 100 µM

SMILES: COC(=O)C(Cc1c[nH]cn1)NC(=O)c1cc(C(C)(C)C)c(O)c(C(C)(C)C)c1 (stereo not shown) [Compound 4, 2-(3,5-di-tert-butyl-4-hydroxy-benzoylamino)-3-(1H-imidazol-4-yl)-propionic acid methyl ester]
- melting point: 117 to 119 °C

SMILES: COC(=O)CNC(=O)c1cc(C(C)(C)C)c(O)c(C(C)(C)C)c1 [Compound 5, (3,5-di-tert-butyl-4-hydroxy-benzoylamino)-acetic acid methyl ester]
- melting point: 130 to 132 °C
- inhibition at 100 µM [1]: < 50%
- IC50 [1]: > 100 µM

SMILES: C=CCNC(=O)c1cc(C(C)(C)C)c(O)c(C(C)(C)C)c1 [Compound 6, N-allyl-3,5-di-tert-butyl-4-hydroxy-benzamide]
- melting point: 182 to 183.5 °C
- inhibition at 100 µM [1]: < 50%
- IC50 [1]: > 100 µM

SMILES: C#CCNC(=O)c1cc(C(C)(C)C)c(O)c(C(C)(C)C)c1 [Compound 7, 3,5-di-tert-butyl-4-hydroxy-N-prop-2-ynyl-benzamide]
- melting point: 178.5 to 180 °C

SMILES: CCOc1ccccc1NC(=O)N(C)C [Compound 8, 3-(2-ethoxy-phenyl)-1,1-dimethyl-urea]
- melting point: 71.5 to 72.5 °C

SMILES: CN(C)C(=O)Nc1ccccc1C(=O)O [Compound 9, 2-(3,3-dimethyl-ureido)-benzoic acid]
- melting point: 158 to 159.5 °C

SMILES: CCOc1ccccc1NC(=O)Nc1ccc([N+](=O)[O-])cc1 [Compound 10, 1-(2-ethoxy-phenyl)-3-(4-nitro-phenyl)-urea]
- melting point: 178 to 181 °C

SMILES: CC(=O)N(O)C(C)c1ccc(CC(C)C)cc1 (stereo not shown) [Compound 11]
- inhibition at 100 µM [1]: < 50%
- IC50 [1]: > 100 µM

SMILES: COc1ccc2cc(C(C)N(O)C(C)=O)ccc2c1 (stereo not shown) [Compound 12, N-hydroxy-N-[1-(6-methoxy-naphthalen-2-yl)-ethyl]-acetamide]
- inhibition at 100 µM [1]: < 50%
- IC50 [1]: > 100 µM

SMILES: CC(C)(C)c1cc(C=C2SC(=S)N(N)C2=O)cc(C(C)(C)C)c1O [Compound 13, 3-amino-5-(3,5-di-tert-butyl-4-hydroxy-benzylidene)-2-thioxo-thiazolidin-4-one]
- melting point: 244.5 to 246.5 °C
